The first assay addresses T1, human vasopressin V2 receptor subtype (Homo sapiens, UniProt P30518).
T1 construct: host or cells: CHO cells (pZeoSV vector)
The experiment in a line: Vasopressin binding in Chinese Hamster Ovary cell membranes expressing human vasopressin V2 subtype receptors. The conditions noted are these: 100 nM, CHO cell membranes, [3H]arginine vasopressin, values without parentheses. Put shortly:
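Radioligand displacement on membranes from CHO cells stably expressing human V2 receptor, 25 to 50 μg protein/well, in 50 mM Tris-HCl pH 7.4 with MgCl2, BSA and protease inhibitors. [^3H]arginine vasopressin (8 nM working solution) incubated 60 min at room temperature; bound label measured by filtration and scintillation counting.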
T1 sequence (P30518 whole entry): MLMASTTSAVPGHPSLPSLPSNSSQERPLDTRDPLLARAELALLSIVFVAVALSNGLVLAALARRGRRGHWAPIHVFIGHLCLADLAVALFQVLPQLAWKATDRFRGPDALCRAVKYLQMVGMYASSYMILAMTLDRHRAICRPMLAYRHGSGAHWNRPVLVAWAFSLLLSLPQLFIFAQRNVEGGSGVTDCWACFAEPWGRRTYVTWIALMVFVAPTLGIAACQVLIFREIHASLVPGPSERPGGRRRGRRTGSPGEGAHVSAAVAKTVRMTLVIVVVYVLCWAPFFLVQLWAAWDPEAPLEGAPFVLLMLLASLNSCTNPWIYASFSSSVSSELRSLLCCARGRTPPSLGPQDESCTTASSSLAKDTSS
For `COc1ccccc1-c1ccc(C(=O)N2Cc3ccc(C(=O)N(C)CCN(C)C)n3Cc3ccccc32)cc1OC` [Example 94, 10-[(2,2′-Dimethoxy[1,1′-biphenyl]-4-yl)carbonyl]-N-[2-(dimethylamino)ethyl]-N-methyl-10,11-dihydro-5H-pyrrolo[2,1-c][1,4]benzodiazepine-3-carboxamide], the inhibition at 0.1 µM turned out to be 26%.

Consider `COc1cccc(-c2cc(OC)c(C(=O)N3Cc4ccc(C(=O)NCCCN(C)C)n4Cc4ccccc43)cc2Cl)c1` [Example 79, 10-[(6-Chloro-3,3′-dimethoxy[1,1′-biphenyl]-4-yl)carbonyl]-N-[3-(dimethylamino)propyl]-10,11-dihydro-5H-pyrrolo[2,1-c][1,4]benzodiazepine-3-carboxamide], for which the inhibition at 0.1 µM is 7%.

As to `COc1cc(C(=O)N2Cc3ccc(C(=O)NCCCN(C)C)n3Cc3ccccc32)ccc1-c1cccc2ccccc12` [Example 80, N-[3-(Dimethylamino)propyl]-10-[3-methoxy-4-(1-naphthyl)benzoyl]-10,11-dihydro-5H-pyrrolo[2,1-c][1,4]benzodiazepine-3-carboxamide], the inhibition at 0.1 µM amounted to 43%.

With `COc1ccccc1-c1ccc(C(=O)N2Cc3ccc(C(=O)N(C)CCN(C)C)n3Cc3ccccc32)cc1` [Example 90, N-[2-(Dimethylamino)ethyl]-10-[(2′-methoxy[1,1′-biphenyl]-4-yl)carbonyl]-N-methyl-10,11-dihydro-5H-pyrrolo[2,1-c][1,4]benzodiazepine-3-carboxamide], the inhibition at 0.1 µM was found to be 19%.

The same assay, now with this note: CHO cell membranes, [3H]arginine vasopressin, values in parentheses.
As for `Cc1cc(C(=O)N2Cc3ccc(C(=O)N4CCCN(C)CC4)n3Cc3ccccc32)ccc1-c1ccccc1C(F)(F)F` [Example 59, (4-Methyl-1,4-diazepan-1-yl)(10-{[2-methyl-2′-(trifluoromethyl)[1,1′-biphenyl]-4-yl]carbonyl}-10,11-dihydro-5H-pyrrolo[2,1-c][1,4]benzodiazepin-3-yl)methanone], the IC50 worked out at 2310 nM.

With `COc1ccccc1-c1ccc(C(=O)N2Cc3ccc(C(=O)N4CCC(N5CCCCC5)CC4)n3Cc3ccccc32)cc1` [Example 111, {10-[(2′-Methoxy[1,1′-biphenyl]-4-yl)carbonyl]-10,11-dihydro-5H-pyrrolo[2,1-c][1,4]benzodiazepin-3-yl}[4-(1-piperidinyl)-1-piperidinyl]methanone], the IC50 turned out to be 772 nM.

For the compound `COc1cc(-c2ccccc2C)c(Cl)cc1C(=O)N1Cc2ccc(C(=O)N3CCC(N4CCCC4)CC3)n2Cc2ccccc21` [Example 136, {10-[(6-Chloro-3-methoxy-2′-methyl[1,1′-biphenyl]-4-yl)carbonyl]-10,11-dihydro-5H-pyrrolo[2,1-c][1,4]benzodiazepin-3-yl}[4-(1-pyrrolidinyl)-1-piperidinyl]methanone], the IC50 worked out at 597 nM.

With `COc1cccc(-c2cc(OC)c(C(=O)N3Cc4ccc(C(=O)N(C)CCN(C)C)n4Cc4ccccc43)cc2Cl)c1` [Example 87, 10-[(6-Chloro-3,3′-dimethoxy[1,1′-biphenyl]-4-yl)carbonyl]-N-[2-(dimethylamino)ethyl]-N-methyl-10,11-dihydro-5H-pyrrolo[2,1-c][1,4]benzodiazepine-3-carboxamide], the IC50 was 2180 nM.

With `Cc1cc(C(=O)N2Cc3ccc(C(=O)N4CCN(CCN(C)C)CC4)n3Cc3ccccc32)ccc1-c1ccccc1C(F)(F)F` [Example 196, {4-[2-(Dimethylamino)ethyl]-1-piperazinyl}(10-{[2-methyl-2′-(trifluoromethyl)[1,1′-biphenyl]-4-yl]carbonyl}-10,11-dihydro-5H-pyrrolo[2,1-c][1,4]benzodiazepin-3-yl)methanone], the IC50 came to 855 nM.

`COc1cc(-c2ccccc2C)c(Cl)cc1C(=O)N1Cc2ccc(C(=O)N3CCN(CCN(C)C)CC3)n2Cc2ccccc21` [Example 197, {10-[(6-Chloro-3-methoxy-2′-methyl[1,1′-biphenyl]-4-yl)carbonyl]-10,11-dihydro-5H-pyrrolo[2,1-c][1,4]benzodiazepin-3-yl}{4-[2-(dimethylamino)ethyl]-1-piperazinyl}methanone]: the IC50 amounted to 497 nM.

For `COc1cc(C(=O)N2Cc3ccc(C(=O)N(C)CCN(C)C)n3Cc3ccccc32)ccc1-c1ccccc1C(F)(F)F` [Example 22, N-Methyl-[N-(2-dimethylamino)ethyl]-10-{[2-methoxy-2′-trifluoromethyl-[1,1′-biphenyl]-4-yl]carbonyl}-10,11-dihydro-5H-pyrrolo[2,1-c][1,4]benzodiazepine-3-carboxamide], the IC50 is 1430 nM.

Turning to `COc1cccc(-c2ccc(C(=O)N3Cc4ccc(C(=O)N5CC[C@@H](N(C)C)C5)n4Cc4ccccc43)cc2C)c1` [Example 278, [(3R)-3-(Dimethylamino)pyrrolidinyl]{10-[(3′-methoxy-2-methyl[1,1′-biphenyl]-4-yl)carbonyl]-10,11-dihydro-5H-pyrrolo[2,1-c][1,4]benzodiazepin-3-yl}methanone], the IC50 was found to be 1680 nM.

Regarding `COc1ccccc1-c1ccc(C(=O)N2Cc3ccc(C(=O)N4CCN(CCN(C)C)CC4)n3Cc3ccccc32)cc1C` [Example 195, {4-[2-(Dimethylamino)ethyl]-1-piperazinyl}{10-[(2′-methoxy-2-methyl[1,1′-biphenyl]-4-yl)carbonyl]-10,11-dihydro-5H-pyrrolo[2,1-c][1,4]benzodiazepin-3-yl}methanone], the IC50 came to 298 nM.

For `COc1ccccc1-c1ccc(C(=O)N2Cc3ccc(C(=O)N4CCCN(C)CC4)n3Cc3ccccc32)cc1` [Example 61, {10-[(2′-Methoxy[1,1′-biphenyl]-4-yl)carbonyl]-10,11-dihydro-5H-pyrrolo[2,1-c][1,4]benzodiazepin-3-yl}(4-methyl-1,4-diazepan-1-yl)methanone], the concentration for half-maximal inhibition (IC50) came out at 745 nM.

Regarding `Cc1cc(C(=O)N2Cc3ccc(C(=O)N4CCC[C@H]4CN4CCCC4)n3Cc3ccccc32)ccc1-c1ccccc1C(F)(F)F` [Example 258, (10-{[2-Methyl-2′-(trifluoromethyl)[1,1′-biphenyl]-4-yl]carbonyl}-10,11-dihydro-5H-pyrrolo[2,1-c][1,4]benzodiazepin-3-yl)[(2S)-2-(1-pyrrolidinylmethyl)pyrrolidinyl]methanone], the IC50 was 5680 nM.

In the case of `O=C(c1ccc(-c2cccc3ccccc23)cc1Cl)N1Cc2cccn2Cc2ccccc21` [Example 24, [2-Chloro-4-(naphthalen-1-yl)phenyl][10,11-dihydro-5H-pyrrolo[2,1-c][1,4]benzodiazepin-10-yl]methanone], the IC50 came to 4.7 nM.

On to `COc1cc(-c2ccccc2C)c(Cl)cc1C(=O)N1Cc2ccc(C(=O)N3CCCN(C)CC3)n2Cc2ccccc21` [Example 60, {10-[(6-Chloro-3-methoxy-2′-methyl[1,1′-biphenyl]-4-yl)carbonyl]-10,11-dihydro-5H-pyrrolo[2,1-c][1,4]benzodiazepin-3-yl}(4-methyl-1,4-diazepan-1-yl)methanone], for which the IC50 is 1200 nM.

As to `COc1ccccc1-c1ccc(C(=O)N2Cc3ccc(C(=O)N4CCN(CCCN(C)C)CC4)n3Cc3ccccc32)cc1C` [Example 245, {4-[3-(Dimethylamino)propyl]-1-piperazinyl}{10-[(2′-methoxy-2-methyl[1,1′-biphenyl]-4-yl)carbonyl]-10,11-dihydro-5H-pyrrolo[2,1-c][1,4]benzodiazepin-3-yl}methanone], the IC50 amounted to 423 nM.

These data come from patent publication US7109193B2, “Tricyclic diazepines tocolytic oxytocin receptor antagonists” (Wyeth, priority 2001, dated 2006).
